# Results as given in ChEMBL document CHEMBL5365491, “Synthesis and anti-tumor activities in human leukemia-derived cells of polyenylpyrroles with a methyl group at the conjugated polyene terminus” (Bioorg Med Chem Lett, 2023).
# How the values were obtained:
# Format in all cases: functional, cell-based
# Raji [1] = assay: Growth inhibition of human Raji cells measured after 72 hrs by CCK8 assay
# K562 [2] = assay: Growth inhibition of human K562 cells measured after 72 hrs by CCK8 assay; conditions: K562, 72 h
# THP-1 [3] = assay: Growth inhibition of human THP-1 cells measured after 72 hrs by CCK8 assay; conditions: THP-1, 72 h
# TF-1 [4] = assay: Growth inhibition of human TF-1 cells measured after 72 hrs by CCK8 assay; conditions: TF-1, 72 h
# CCRF-CEM [5] = assay: Antitumor activity against human CCRF-CEM cells assessed as cell killing activity
# THP-1 [6] = assay: Antitumor activity against human THP-1 cells assessed as inhibition in cell killing activity
# TF-1 [7] = assay: Antitumor activity against human TF-1 cells assessed as inhibition in cell killing activity
# CCRF-CEM [8] = assay: Growth inhibition of human CCRF-CEM cells measured after 72 hrs by CCK8 assay
# Raji [9] = assay: Antitumor activity against human Raji cells assessed as cell killing activity
# K562 [10] = assay: Antitumor activity against human K562 cells assessed as inhibition in cell killing activity
IC50 (Raji [1]) [nM],Compound,IC50 (CCRF-CEM [5]; read-out: pIC50 (converted)) [nM],IC50 (THP-1 [6]) [nM],IC50 (TF-1 [7]) [nM],IC50 (Raji [9]) [nM],IC50 (K562 [10]) [nM],IC50 (CCRF-CEM [5]; read-out: IC50) [nM],further results
10000,CCOC(=O)/C=C/C=C/C=C/C=C/c1[nH]ccc1Cl,251,–,–,–,–,–,IC50 (K562 [2]): > 10000 nM; IC50 (THP-1 [3]): 1200 nM; IC50 (TF-1 [4]): 230 nM
–,CCOC(=O)/C=C/C=C/C=C/C=C/c1ccc[nH]1,1260,770,250,–,–,–,–
10000,CCOC(=O)/C=C/C=C/C=C/C=C/c1cccn1C,> 10000,–,–,–,–,–,IC50 (CCRF-CEM [8]): 10000 nM
–,CCOC(=O)/C(C)=C/C=C/C=C/C=C/c1ccc[nH]1,79.4,98,92,1600,280,90,–
–,CCOC(=O)/C(C)=C/C=C/c1[nH]ccc1Cl,7940,–,–,> 10000,–,8400,–
–,CCOC(=O)/C(C)=C/C=C/C=C/C=C/c1[nH]ccc1Cl,63.1,150,37,> 10000,1600,63,–
–,CCOC(=O)/C(C)=C/C=C/C=C/c1[nH]ccc1Cl,251,–,–,> 10000,–,230,–
–,CCOC(=O)/C(C)=C/C=C/C=C/C=C/c1cccn1C,> 10000,–,–,> 10000,–,> 10000,–
–,COc1cc(/C=C/C=C/C=C/C=C/c2[nH]ccc2Cl)oc(=O)c1 [AUXARCONJUGATIN B],501,1300,440,–,4900,–,–

Compound,IC50 (Raji [1]) [nM],IC50 (CCRF-CEM [5]; read-out: pIC50 (converted)) [nM],IC50 (THP-1 [6]) [nM],IC50 (TF-1 [7]) [nM],IC50 (Raji [9]) [nM],IC50 (K562 [10]) [nM],IC50 (CCRF-CEM [5]; read-out: IC50) [nM],further results
COc1cc(\C(C)=C/C=C/C=C/C=C/c2[nH]ccc2Cl)oc(=O)c1C,10000,1580,–,–,–,–,–,–
